# Experimental data as given in patent US20260217701A1, “SELECTIVE BET INHIBITORS AND USES THEREOF” (Tay Therapeutics Limited, priority 2022, published 2026).
# Several values for one entry are separate records, joined by “and”; a condition that tells them apart may be missing. Equal values may be shown once.
# System: collagen-induced arthritis
# Test: Collagen-induced arthritis (CIA) model: clinical scores and paw volume; on Average animal paw volume percent change (%): reference of the scale not given here; on animal paw volume percent change (%): reference of the scale not given here
# Assay type: in vivo, Lewis rats
# Conditions: for Average animal paw volume percent change (%) / Animal paw volume percent change (%) / Average animal paw volume: group 4 CIA + GSK620 (10 mg/kg); for Animal paw volume percent change (%) / clinical score left forelimb / clinical score left hind limb / clinical score right forelimb / clinical score right hind limb / clinical score, score (all limbs) / Animal paw volume: individual animals; for Animal paw volume: Group 4 (CIA + GSK620)
# [1] = group 4 CIA + GSK620, 2nd section of table, 1st day (between Day 12 and Day 18)
# [2] = group 4 CIA + GSK620, 2nd section of table, 2nd day (between Day 12 and Day 18)
# [3] = group 4 CIA + GSK620, 2nd section of table, 3rd day (between Day 12 and Day 18)
smiles,measurement,setting,value
CNC(=O)c1cc(C(=O)NC2CC2)cn(Cc2ccccc2)c1=O [GSK620],Percent Inhibition in clinical score (Mean ± SD),"CIA rats, 10 mg/kg",37 ± 14%
same,Percent Inhibition in paw volume (Mean ± SD),"CIA rats, 10 mg/kg",28 ± 21%
same,Average animal paw volume percent change (%),"Day 0, L paw",0.00%
same,Animal paw volume percent change (%),"Day 0, L paw",0.00%
same,Average animal paw volume percent change (%),"Day 0, R paw",0.00%
same,Animal paw volume percent change (%),"Day 0, R paw",0.00%
same,Average overall clinical score,"Day 0, CIA",0
same,clinical score left forelimb,"Day 0, CIA",0
same,clinical score left hind limb,"Day 0, CIA",0
same,clinical score right forelimb,"Day 0, CIA",0
same,clinical score right hind limb,"Day 0, CIA",0
same,"clinical score, score (all limbs)","Day 0, CIA",0
same,Average animal paw volume,"Day 6, L paw",1.34 mL
same,Animal paw volume percent change (%),"Day 6, L paw, 10 mg/kg",−0.39% and −0.73% and 0.36% and 0.00% (2×) and −0.37%
same,Average animal paw volume,"Day 6, R paw",1.34 mL
same,Average animal paw volume percent change (%),"Day 6, R paw",1.50%
same,Animal paw volume percent change (%),"Day 6, R paw, 10 mg/kg",−0.39% and 0.00% (4×)
same,Average overall clinical score,"Day 6, CIA",0
same,clinical score left forelimb,"Day 6, CIA",0
same,clinical score left hind limb,"Day 6, CIA",0
same,clinical score right forelimb,"Day 6, CIA",0
same,clinical score right hind limb,"Day 6, CIA",0
same,"clinical score, score (all limbs)","Day 6, CIA",0
same,Average animal paw volume,"Day 12, L paw",1.36 mL
same,Animal paw volume percent change (%),"Day 12, L paw, 10 mg/kg",0.76% and 0.00% and 1.50%
same,Average animal paw volume,"Day 12, R paw",1.37 mL
same,Average overall clinical score,"Day 12, CIA",0
same,clinical score left forelimb,"Day 12, CIA",0
same,clinical score left hind limb,"Day 12, CIA",0
same,clinical score right forelimb,"Day 12, CIA",0
same,clinical score right hind limb,"Day 12, CIA",0
same,"clinical score, score (all limbs)","Day 12, CIA",0
same,Average animal paw volume,"Day 13, L paw",1.38 mL
same,Animal paw volume percent change (%),"Day 13, L paw, 10 mg/kg",−0.73%
same,Average animal paw volume,"Day 13, R paw",1.41 mL
same,"Average detailed clinical score, right hind limb","Day 13, CIA",0.125
same,"Average detailed clinical score, score","Day 13, CIA",0.125
same,Average overall clinical score,"Day 13, CIA",0
same,clinical score left forelimb,"Day 13, CIA",0
same,clinical score left hind limb,"Day 13, CIA",0
same,clinical score right forelimb,"Day 13, CIA",0
same,clinical score right hind limb,"Day 13, CIA",0 (6×) and 1
same,"clinical score, score (all limbs)","Day 13, CIA",0 (6×) and 1
same,Animal paw volume,"Day 13, L paw",1.40 mL
same,Animal paw volume,"Day 13, R paw",1.40 mL
same,Animal paw volume percent change (%),"Day 14, L paw, 10 mg/kg",−0.37%
same,Animal paw volume percent change (%),"Day 14, R paw, 10 mg/kg",4.40%
same,"Average detailed clinical score, left hind limb","Day 14, CIA",0.875
same,"Average detailed clinical score, right hind limb","Day 14, CIA",1.125
same,Average overall clinical score,"Day 14, CIA",2
same,clinical score left forelimb,"Day 14, CIA",0
same,clinical score left hind limb,"Day 14, CIA",0 (4×) and 2 (2×) and 1
same,clinical score right forelimb,"Day 14, CIA",0
same,clinical score right hind limb,"Day 14, CIA",0 (4×) and 2 (2×) and 3
same,"clinical score, score (all limbs)","Day 14, CIA",0 (3×) and 4 and 3 (2×) and 2
same,Animal paw volume,"Day 14, L paw",1.40 mL
same,Average animal paw volume,"Day 15, L paw",1.74 mL
same,Animal paw volume percent change (%),"Day 15, R paw, 10 mg/kg",59.00%
same,"Average detailed clinical score, left hind limb","Day 15, CIA",1.625
same,"Average detailed clinical score, score","Day 15, CIA",3.625
same,Average overall clinical score,"Day 15, CIA",4
same,clinical score left forelimb,"Day 15, CIA",0
same,clinical score left hind limb,"Day 15, CIA",1 (2×) and 3 (3×) and 0 (2×)
same,clinical score right forelimb,"Day 15, CIA",0
same,clinical score right hind limb,"Day 15, CIA",1 and 3 (3×) and 0 (2×) and 4
same,"clinical score, score (all limbs)","Day 15, CIA",2 and 6 (3×) and 0 and 4 and 1
same,Animal paw volume,"Day 15, L paw",1.60 mL
same,Average overall clinical score,"Day 18, CIA",7
same,Average animal paw volume,"Day 19, L paw",2.54 mL
same,Animal paw volume percent change (%),"Day 19, L paw, 10 mg/kg",83.00% and 100.00%
same,Average overall clinical score,"Day 19, CIA",8
same,Animal paw volume,"Day 19, R paw",2.20 mL
same,Average overall clinical score,"Day 21, CIA",8
same,clinical score left forelimb,[1],0
same,clinical score left hind limb,[1],0
same,clinical score right forelimb,[1],0
same,clinical score right hind limb,[1],0
same,"clinical score, score (all limbs)",[1],0
same,clinical score left forelimb,[2],0
same,clinical score left hind limb,[2],2
same,clinical score right forelimb,[2],0
same,clinical score right hind limb,[2],2
same,"clinical score, score (all limbs)",[2],4
same,clinical score left forelimb,[3],0
same,clinical score left hind limb,[3],2
same,clinical score right forelimb,[3],0
same,clinical score right hind limb,[3],2
same,"clinical score, score (all limbs)",[3],4
same,clinical score left forelimb,"group 4 CIA + GSK620, Day 18",0
same,clinical score left hind limb,"group 4 CIA + GSK620, Day 18",4 (7×) and 3
same,clinical score right forelimb,"group 4 CIA + GSK620, Day 18",0
same,clinical score right hind limb,"group 4 CIA + GSK620, Day 18",4 (6×) and 0 and 3
same,"clinical score, score (all limbs)","group 4 CIA + GSK620, Day 18",8 (6×) and 4 and 6
same,clinical score left forelimb,"group 4 CIA + GSK620, Day 19",1 (6×) and 0 (2×)
same,clinical score left hind limb,"group 4 CIA + GSK620, Day 19",4 (5×) and 3 (3×)
same,clinical score right forelimb,"group 4 CIA + GSK620, Day 19",0 (6×) and 1 (2×)
same,clinical score right hind limb,"group 4 CIA + GSK620, Day 19",4 (3×) and 3 (4×) and 0
same,"clinical score, score (all limbs)","group 4 CIA + GSK620, Day 19",9 (2×) and 10 and 6 and 5 and 7 (2×) and 8
same,clinical score left forelimb,"group 4 CIA + GSK620, Day 20",1 (5×) and 2 and 0 (2×)
same,clinical score left hind limb,"group 4 CIA + GSK620, Day 20",4 (5×) and 3 (3×)
same,clinical score right forelimb,"group 4 CIA + GSK620, Day 20",0 (6×) and 1 (2×)
same,clinical score right hind limb,"group 4 CIA + GSK620, Day 20",4 (3×) and 3 (4×) and 1
same,"clinical score, score (all limbs)","group 4 CIA + GSK620, Day 20",9 (2×) and 11 and 6 (2×) and 7 (2×) and 8
